Source: patent US20030170826A1, “Peptides for facilitating composite receptor expression and translocation of macromolecules” (priority 2001, published 2003)
Ends that are not written are not given here. {propylamine} = propylamine end group; fluorescein = fluorescein label; fluor = fluorescein label

Assays:
SK-BR-3 cells [1] = details: 60 nM CR1 or CR1R, 30 minutes on ice, sodium azide
Description: This difference in membrane orientation can be detected using an anti-FITC antibody which cannot penetrate the cellular membrane and therefore can only bind to an FITC on the outer cell surface. For CR1, FITC is an intracellular domain. However, for CR1R, FITC is an extracellular domain. […] SK-BR-3 cells were collected and washed in DPBS with 0.5% BSA (DPBS-BSA), resuspended in DPBS-BSA with 10 mM Sodium Azide, incubated for 20 minutes at room temperature, transferred to ice. 5×10^4 cells were mixed with 60 nM CR1 or CR1R in 20 μl DPBS-BSA, incubated 30 min on ice, washed in DPBS-BSA -Azide, and then resuspended in 50 μl DPBS-BSA-Azide. Then, 50 μl of anti-antibody in DPBS-BSA-Azide (dilution 1:50) was added, the suspension incubated on ice for 30 minutes, and then the cells were washed and applied to slides. Alexa-Fluor 594 fluorescence was analyzed by microscope using monochrome filter for Cy3.5.
This difference in orientation can be detected using an anti-FITC antibody which cannot penetrate the cellular membrane and therefore can only bind FITC which is on the outside cell surface and not inside the cell. […] Alexa-Fluor 594 fluorescence was analyzed using a fluorescent microscope and a monochrome filter for Cy3.5.

HeLa cells [2] = assay: Peptide mediated uptake of oligonucleotide FITC-O-24, FACS (FIG. 7); assay type: cell-based, human; details: peptide 0.0-150 μM, fifteen minutes at room temperature
Description: Flow cytometric analyses of cell subpopulations for these and other experiments described herein were performed using a FACS Vantage flow cytometer (Becton-Dickinson Immunocytometry Systems, San Jose, Calif.). The cells were excited at 488 nm. The FITC fluorescence was collected through a 530/30 nm band pass filter. A minimum of ten thousand cells was interrogated in each sample. Analysis of data was performed using CellQuest software (Becton-Dickinson).
To detect fluorescent labeled molecules associated with cells, the cells were first harvested in DPBS, incubated with a fluorescent labeled molecule of interest at varied concentrations (e.g., oligonucleotide at 50 μM mixed with 1×10^5 cells in 10 μl DPBS), incubated for 15 minutes at room temperature, diluted with 200 μl growth medium, and then analyzed by fluorescence activated cell sorting (FACS).
Next, various peptide sequences and domains were tested for their abilities to facilitate translocation of the oligonucleotide FITC-O-24 across a cell membrane. The peptides tested included: K16 (G4K16; SEQ ID NO: 47); TAT (G4YGRKKRRQR3; SEQ ID NO: 48); TAK8 (G4YGRKKRRQR3G4K8; SEQ ID NO: 49); TAK12 (G4YGRKKRRQR3G4K12; SEQ ID NO: 50) and TAK16/TatK16 (G4YGRKKRRQR3G4K16; SEQ ID NO: 36). HeLa cells (1×10^5) were incubated with the oligonucleotide (0.6 μl, 50 μM) in 10 μl DPBS and various concentrations of the peptides (i.e., 0.0, 1.5, 5.0, 15.0, 50.0, or 150 μM). The cells were incubated in the presence of the mixtures for fifteen minutes at room temperature and then analyzed by FACS.

SK-BR-3 cells [3] = assay: Peptide facilitated translocation of Cy3-O18 oligonucleotide, fluorescence microscopy (FIG. 6); assay type: cell-based, human; details: for Cy3 label of the oligonucleotide in cells: mixture of Cy3-oligonucleotide and fluorescein labeled peptide
SK-BR-3 cells [4] = details: 200 nM peptide, 15 minutes on ice
Description: FIG. 3, comprising FIG. 3A, FIG. 3B, and FIG. 3C, is a series of images of fluorescent micrographs illustrating the effects of a cell penetrating domain on the efficiency of composite receptors binding.
SK-BR-3 cells were collected and washed and resuspended in DPBS-BSA. Then, 5×10^4 cells were mixed with 200 nM CR1 or delta-CR1 in 40 μl DPBS-BSA and incubated 15 minutes on ice. The cell were then washed in DPBS-BSA, resuspended in 50 μl DPBS-BSA, washed, and applied to slides. Fluorescence was analyzed by fluorescence microscopy using a monochrome filter for FITC. […] FIG. 3C depicts cells incubated with […] CR1.

SupFG1 gene = assay: Chromosomal mutations induced in the SupFG1 gene by triplex forming oligonucleotides; assay type: cell-based; details: murine cell line with SupFG1 gene in the genome; mutations/total plaques
Description: The ability of TAK16 to facilitate translocation of oligonucleotides designed to form triplex DNA complexes with the SupFG1 sequence was tested in a murine cell line in which the SupFG1 gene is incorporated into the genome. The assay used measures chromosomal mutations induced in the SupFG1 gene by triplex forming oligonucleotides, as measured by mutations/total plaques. The ability of TAK16 to translocate triplex forming oligonucleotides was compared to that of Antennapedia (ANTP)-s-s-oligo complex and the lipid delivery system Gene Porter. The two oligonucleotides tested were AG13 (5′-AGGAA8-propylamine-3′; SEQ ID NO: 58) and AG30 (5′-AGGAAG8TGGTG5AG5AG-propylamine-3′; SEQ ID NO: 59). The groups tested were 1) control (no treatment); 2) AG13 alone; 3) AG13+Gene Porter; 4) AG13-s-s-ANTP; 5) AG13+TAK16; 6) AG30+Gene Porter; and 7) AG30+TAK16. […] It can be seen that the two highest mutation rates occurred in cells treated with AG13+TAK16 (group 5; 40×10^−5) and AG30+TAK16 (group 7; 36×10^−5).

SK-BR-3 cells [5] = assay: Localization of fluorescein labeled composite receptor peptides in cells, fluorescence microscopy (FIG. 1); assay type: cell-based, human; details: 800 nM Tat-K16, 800 nM CR1 or 400 nM CR2, 15 minutes
SK-BR-3 cells [6] = assay: Translocation of fluorescein labeled peptides containing a cell penetrating domain (FIG. 5); assay type: cell-based, human; details: 800 nM peptide, fifteen minutes at 37° C.
HeLa cells [7] = assay: TAK16 mediated uptake of FITC-O-24, fluorescence microscopy (FIG. 8); assay type: cell-based, human; details: TAK16 0.00, 0.36, 1.80 or 9.00 μM, FITC-O-24 2.5 μM
HeLa cells [8] = assay: TAK16 mediated uptake of 83-mer oligonucleotide O-83-FITC, FACS and fluorescence microscopy (FIG. 9, 10); assay type: cell-based, human; details: TAK16 13.3 μM, O-83-FITC 0.00-1.8 μM
HeLa cells [9] = assay: TAK16 mediated uptake of Cy3 labeled 400 bp double stranded DNA and 5 kb plasmid DNA (FIG. 11); assay type: cell-based, human
Description: Next, it was decided to determine whether even larger nucleotides, including double stranded (DS) DNA or plasmid DNA, could be transported into a cell. Specifically, it was determined whether TAK16 could facilitate the transport of 400 base pair (bp) double stranded DNA and a 5 kb circular plasmid DNA (pECFP; enhanced cyano fluorescent protein) into cells. The DNAs were labeled with Cy3 reagent (“Label IT” Cy3 Nucleic Acid Labeling Kit; Mirus, Madison, Wis.), according to manufacturer's directions. This protocol usually yields one label per up to ten nucleotides. To this end, HeLa cells were prepared as above and then incubated with 400 ng of plasmid DNA or 60 ng of 400 bp DNA and with TAK16 (12 μM).

HeLa cells [10] = assay: Peptide-oligo mediated uptake of avidin-FITC (FIG. 12); assay type: cell-based, human
HeLa cells [11] = assay: Peptide-oligo mediated uptake of horseradish peroxidase-avidin (HPA), cytochemical analysis (FIG. 13); assay type: cell-based, human; details: TAK16 and Bio-O-22, 30 minutes at 37° C.
Description: To further determine the ability of a fusion peptide to facilitate transport of a molecule associated with a nucleic acid across a cell membrane, TAK16 was tested for its ability to mediate transport of another protein. In this example, the protein horseradish peroxidase (HRP) was tested. The HRP was conjugated to avidin to yield 120 kD Horseradish Peroxidase-Avidin (HPA). Cells were obtained as above. HPA and Bio-O-22 were added to cells in DPBS at final concentrations of 8 μM and 8 μM, respectively, and then incubated for 15 minutes at room temperature. Then, 2.5 μl of the mix was added to 2×10^5 HeLa cells in 10 μl DPBS. Next, 12.5 μl of 100 μM TAK16 in DPBS was added to the mixture and incubated for 30 minutes at 37° C. Then the cells were washed and applied to slides. Cells on the slides were treated with 30 μl peroxidase suppressor solution to suppress endogenous peroxidase, washed with DPBS, treated with 30 μl Metal Enhanced DAB Substrate Working Solution, incubated for 15 minutes at room temperature, and then subjected to microscopic analysis. […] HPA activity or presence was detected using the DAB kit and the manufacturer's protocol.

[12] = Intracellular transport of beta-galactosidase conjugated to an oligonucleotide; assay type: cell-based; details: similar experiments

## biotin-G3YGRKKRRQR3G3AAL3A19WK8-FITC [CR1R]
SK-BR-3 cells [1]
  fluorescence of anti-fluorescein (anti-FITC) antibodies, Alexa-Fluor 594: higher

## G4YGRKKRRQR3G4K8 (GGGGYGRKKRRQRRRGGGGKKKKKKKK; Human immunodeficiency virus type 1) [TAK8]
HeLa cells [2]
  facilitating transport of FITC-O-24 across the cell membrane: decreased ability to facilitate transport

## fluor-G4YGRKKRRQR (fluorescein-GGGGYGRKKRRQR) [Tat, reference compound]
SK-BR-3 cells [3]
  Cy3 label of the oligonucleotide in cells: not detected

## FITC-G3G3AAL3A19WK8-biotin [delta-CR1]
SK-BR-3 cells [4]
  FITC fluorescence on the cell membrane: low level of fluorescence on the cell membrane

## 5′-AGGAA8-propylamine-3′ (AGGAAAAAAAAA; 3' {propylamine}, sugars by position and backbone not given here) [AG13]
SupFG1 gene
  chromosomal mutation frequency induced in the SupFG1 gene: 8 ×10^−5

## G4YGRKKRRQR3G4K12 (GGGGYGRKKRRQRRRGGGGKKKKKKKKKKKK; Human immunodeficiency virus type 1) [TAK12]
HeLa cells [2]
  facilitating transport of FITC-O-24 across the cell membrane: decreased ability to facilitate transport

## fluor-G3YGRKKRRQR3G3AAL3A19WK8-biotin [CR1]
SK-BR-3 cells [5]
  localization of fluorescein labeled peptide in the cell: localized at the periphery of the cells, in a speckled distribution
SK-BR-3 cells [4]
  FITC fluorescence on the cell membrane: high levels of fluorescence occur on the cell membrane

## G4K16 (GGGGKKKKKKKKKKKKKKKK; FITC-0-24 oligonucleotide cell membrane translocation facilitating peptide) [reference compound]
HeLa cells [2]
  facilitating transport of FITC-O-24 across the cell membrane: Neither TAT, nor adapter domain, K16, were able to efficiently facilitate transport

## fluor-G4YGRKKRRQR3G4K16 (fluorescein-GGGGYGRKKRRQRRRGGGGKKKKKKKKKKKKKKKK) [Tat-K16]
SK-BR-3 cells [5]
  localization of fluorescein labeled peptide in the cell: located throughout the cell
SK-BR-3 cells [6]
  entry of peptide into the cell and localization: entered the cell and were located in both the cytoplasm and the nucleus
SK-BR-3 cells [3]; 500 nM oligonucleotide and 80 nM peptide, fifteen minutes at 37° C.
  oligonucleotide Cy3-O18 translocation through the cell membrane: facilitated
SK-BR-3 cells [3]
  Cy3 label of the oligonucleotide in cells: located in the cytoplasm as well as in the nucleus
HeLa cells [2]
  facilitating transport of FITC-O-24 across the cell membrane: most efficient
HeLa cells [7]
  fluorescent intensity associated with FITC-O-24: increased in the cells incubated with increased amounts of TAK16 peptide
HeLa cells [8]; FACS
  cell associated fluorescent intensity of O-83-FITC (FACS): increased with increasing amounts of the 83-mer
HeLa cells [8]; fluorescent microscopic analysis
  cellular associated fluorescence of O-83-FITC (microscopy): increased cellular associated fluorescence
HeLa cells [9]; TAK16 12 μM
  cells with uptake of large double stranded DNA molecules, linear and circular: ~100%
HeLa cells [9]; […], TAK16 12 μM or no peptide
  uptake of Cy3 labeled 400 bp DS DNA or plasmid DNA (fluorescence): obvious fluorescence
HeLa cells [10]; TAK16 + Bio-O-22 + avidin-FITC, 20 minutes at 37° C.
  fluorescence of avidin-FITC in cells, with oligonucleotide Bio-O-22: much higher levels of fluorescence
HeLa cells [10]; TAK16 and avidin-FITC, without Bio-O-22
  fluorescence of avidin-FITC in cells, no oligonucleotide: did not exhibit appreciable levels of fluorescence
HeLa cells [11]
  HPA uptake, with oligonucleotide Bio-O-22: facilitated
[12]
  intracellular transport of a 140 kD protein (beta-galactosidase) conjugated to an oligonucleotide: able to facilitate intracellular transport

B1: fluor-G4YGRKKRRQR3G3MPNLWFL2FLGLVA2MQL5FL3F2LVYW DHFECSCTGLPF (peptide)
chain: fluor-GGGGYGRKKRRQRRRGGGMPNLWFLLFLGLVAAMQLLLLLFLLLFFLVYWDHFECSCTGLPF
SK-BR-3 cells [5]
  localization of fluorescein labeled peptide in the cell: localized in a few foci at the cell surface
